Measurements reported in US7618975B2, “4-arylamino-quinazolines and analogs as activators of caspases and inducers of apoptosis and the use thereof” (Myriad Pharmaceuticals, Inc., priority 2003, dated 2009).
pIC50: −log10 of the molar value. Each block holds one molecule with its values, some of them ahead of it.

Tests used:
[1] = system: tubulin (Cytoskeleton #ML113, MAP-rich); experiment: Inhibition of tubulin polymerization (DAPI fluorescence); assay type: biochemical; settings: 30 minutes preincubation, 30 minutes at 37° C.
Protocol: Lyophilized tubulin (Cytoskeleton #ML113, 1 mg, MAP-rich) was assayed for the effect of the test compound on tubulin polymerization as measured by change in fluorescence for 4′,6-diamidino-2-phenylindole (DAPI) (Barron, D. M. et al. Analytical Biochem., 2003, 315, 49-56.). 1 μl of serial dilutions of each test compound (from 100×DMSO stock) was added in 96 well plate format and preincubated for 30 minutes with 94 ul of the non-GTP supplemented tubulin supernatant. 5 μl of DAPI/GTP solution was added to initiate polymerization and incubated for 30 minutes at 37° C. Fluorescence was read with excitation 350 nm, emission wavelength 485 nm on a Tecan Spectraflour Plus. Polymerized tubulin (DMSO and with the tubulin stabilizer Taxol® (paclitaxel)) gives a higher DAPI fluorescence as compared to non-polymerized tubulin (vinblastine and colchicine used to determine baseline).

[2] = system: T-47D cells; experiment: Caspase cascade activation (N-(Ac-DEVD)-N′-ethoxycarbonyl-R110 fluorogenic substrate) in T-47D cells; assay type: cell-based, Human; settings: T-47D; for Caspase activity Ratio T-47D (24 hr) / Caspase activity Ratio T-47D (48 hr): ratio of net RFU to control; for Ratio T-47D (48 hr): benzohydrazide analogs table

pIC50 [1]: 5.52
Structure (SMILES): Cc1ccc(N(C)c2nc(Cl)nc3ccccc23)cc1 [Example 2, (2-Chloro-quinazolin-4-yl)-(4-methyl-phenyl)-methyl-amine]
Caspase activity Ratio T-47D (24 hr) [2]: 6.7

pIC50 [1]: 5.70
Structure (SMILES): COc1cccc(N(C)c2nc(Cl)nc3ccccc23)c1 [Example 43, (2-Chloro-quinazolin-4-yl)-(3-methoxy-phenyl)-methyl-amine]
Caspase activity Ratio T-47D (48 hr) [2]: 14.7

pIC50 [1]: 5.22
Structure (SMILES): COc1ccc(N(C)c2nc(NC/C=C(\C)CCC=C(C)C)nc3ccccc23)cc1 [Example 13, N^2-(3,7-Dimethyl-octa-2,6-dienyl)-N^4-(4-methoxy-phenyl)-N^4-methyl-quinazoline-2,4-diamine]
Caspase activity Ratio T-47D (24 hr) [2]: 8.9

pIC50 [1]: 5.70
Structure (SMILES): COc1ccc(N(C)c2nc(N)nc3ccccc23)cc1 [Example 12, N^4-(4-Methoxy-phenyl)-N^4-methyl-quinazoline-2,4-diamine]
Caspase activity Ratio T-47D (24 hr) [2]: 5.3 | Caspase activity Ratio T-47D (48 hr) [2]: 12.8

pIC50 [1]: 5.00
Structure (SMILES): COc1ccccc1N(C)c1nc(Cl)nc2ccccc12 [Example 44, (2-Chloro-quinazolin-4-yl)-(2-methoxy-phenyl)-methyl-amine]
Caspase activity Ratio T-47D (48 hr) [2]: 14.3

pIC50 [1]: > 6.00
Structure (SMILES): COc1ccc(N(C)c2nc(Cl)nc3ccccc23)c(OC)c1 [Example 41, (2-Chloro-quinazolin-4-yl)-(2,4-dimethoxy-phenyl)-methyl-amine]
Caspase activity Ratio T-47D (48 hr) [2]: 12.4

pIC50 [1]: 5.00
Structure (SMILES): COc1ccc(N(C)c2nccc3ccccc23)cc1 [Example 65, (Isoquinolin-1-yl)-(4-methoxy-phenyl)-methyl-amine]
Caspase activity Ratio T-47D (48 hr) [2]: 13.7

pIC50 [1]: 5.00
Structure (SMILES): COc1ccc(OC)c(Nc2nc(Cl)nc3ccccc23)c1 [Example 31, (2-Chloro-quinazolin-4-yl)-(2,5-dimethoxy-phenyl)-amine]
Caspase activity Ratio T-47D (24 hr) [2]: 8.0 | Caspase activity Ratio T-47D (48 hr) [2]: 14.7

pIC50 [1]: 5.40
Structure (SMILES): Cc1ccc(N(C)c2ncnc3ccccc23)cc1 [Example 35, (4-Methyl-phenyl)-methyl-quinazolin-4-yl-amine]
Caspase activity Ratio T-47D (24 hr) [2]: 7.2

pIC50 [1]: < 4.30
Structure (SMILES): COc1ccc(Nc2nc(Cl)nc3ccccc23)cc1 [Example 7, (2-Chloro-quinazolin-4-yl)-(4-methoxy-phenyl)-amine]
Caspase activity Ratio T-47D (24 hr) [2]: 1.2 | Caspase activity Ratio T-47D (48 hr) [2]: 1.0

Structure (SMILES): COc1ccc(N(C)c2nc(C)nc3cc(N)ccc23)cc1 [Example 113, (7-Amino-2-methyl-quinazolin-4-yl)-(4-methoxy-phenyl)-methyl-amine]
Caspase activity Ratio T-47D (24 hr) [2]: 3.7

Structure (SMILES): COc1ccc(Nc2nc(C)nc3ccccc23)cc1F [Example 79, (3-Fluoro-4-methoxy-phenyl)-(2-methyl-quinazolin-4-yl)-amine]
Caspase activity Ratio T-47D (24 hr) [2]: 0.7

Structure (SMILES): CN(c1nc(Cl)nc2ccccc12)[C@H]1CC[C@@H](C)CC1 [Example 132, (2-Chloro-quinazolin-4-yl)-(cis-4-methylcyclohexyl)-methyl-amine]
Caspase activity Ratio T-47D (24 hr) [2]: 1.2

Structure (SMILES): COc1ccc(N(C)c2nc(NCCO)nc3ccccc23)cc1 [Example 11, N^2-(2-Hydroxylethyl)-N^4-(4-methoxy-phenyl)-N^4-methyl-quinazoline-2,4-diamine]
Caspase activity Ratio T-47D (24 hr) [2]: 9.0 | Caspase activity Ratio T-47D (48 hr) [2]: 12.5

Structure (SMILES): COc1cccc(Nc2nc(Cl)nc3ccccc23)c1 [Example 32, (2-Chloro-quinazolin-4-yl)-(3-methoxy-phenyl)-amine]
Caspase activity Ratio T-47D (48 hr) [2]: 1.0

Structure (SMILES): Cc1nc(N(C)c2ccc(F)cc2)c2ccccc2n1 [Example 124, (4-Fluoro-phenyl)-(2-methyl-quinazolin-4-yl)-methyl-amine]
Caspase activity Ratio T-47D (24 hr) [2]: 5.2

Structure (SMILES): CCc1ccc(N(C)c2nc(C)nc3ccccc23)cc1 [Example 87, (4-Ethyl-phenyl)-(2-methyl-quinazolin-4-yl)-methyl-amine]
Caspase activity Ratio T-47D (24 hr) [2]: 6.3

Structure (SMILES): COc1ccc(N(C)c2nc(C)nc3cc([N+](=O)[O-])ccc23)cc1 [Example 112, (4-Methoxy-phenyl)-methyl-(2-methyl-7-nitro-quinazolin-4-yl)-amine]
Caspase activity Ratio T-47D (24 hr) [2]: 1.0

Structure (SMILES): CCCOc1ccc(N(C)c2nc(Cl)nc3ccccc23)cc1 [Example 70, (2-Chloro-quinazolin-4-yl)-(4-propoxy-phenyl)-methyl-amine]
Caspase activity Ratio T-47D (48 hr) [2]: 11.3

Structure (SMILES): COc1ccc(C(=O)NN(C)c2nc(C(F)(F)F)nc3ccccc23)cc1 [N′-(2-(trifluoromethyl)quinazolin-4-yl)-4-methoxy-N′-methylbenzohydrazide]
Ratio T-47D (48 hr) [2]: 13.1

Structure (SMILES): CNc1nc(N(C)c2ccc(OC)nc2)c2ccccc2n1 [Example 129, (2-Methylamino-quinazolin-4-yl)-(6-methoxy-pyridin-3-yl)-methyl-amine]
Caspase activity Ratio T-47D (24 hr) [2]: 10

Structure (SMILES): COc1ccc(Nc2nc(Cl)nc3ccccc23)c(OC)c1 [Example 30, (2-Chloro-quinazolin-4-yl)-(2,4-dimethoxy-phenyl)-amine]
Caspase activity Ratio T-47D (48 hr) [2]: 1.0

Structure (SMILES): CCc1ccc(Nc2nc(C)nc3ccccc23)cc1 [Example 81, (4-Ethyl-phenyl)-(2-methyl-quinazolin-4-yl)-amine]
Caspase activity Ratio T-47D (24 hr) [2]: 1.9

Structure (SMILES): COc1ccc(N(C)c2nc(Cl)nc3cc(C)ccc23)cc1 [Example 57, (2-Chloro-7-methyl-quinazolin-4-yl)-(4-methoxy-phenyl)-methyl-amine]
Caspase activity Ratio T-47D (48 hr) [2]: 6.2

Structure (SMILES): COc1ccccc1Nc1nc(Cl)nc2ccccc12 [Example 33, (2-Chloro-quinazolin-4-yl)-(2-methoxy-phenyl)-amine]
Caspase activity Ratio T-47D (48 hr) [2]: 1.0

Structure (SMILES): CC(C)=CCC/C(C)=C/CNc1nc(N(C)c2ccc(C)cc2)c2ccccc2n1 [Example 16, N^2-(3,7-Dimethyl-octa-2,6-dienyl)-N^4-(4-methyl-phenyl)-N^4-methyl-quinazoline-2,4-diamine]
Caspase activity Ratio T-47D (24 hr) [2]: 7.6

Structure (SMILES): Cc1nc(Nc2ccc(O)cc2)c2ccccc2n1 [Example 127, (4-hydroxy-phenyl)-(2-methyl-quinazolin-4-yl)-amine]
Caspase activity Ratio T-47D (24 hr) [2]: 1.2

Structure (SMILES): COc1ccc(N(C)c2nc(Cl)nc3ccc(Cl)cc23)cc1 [Example 60, (2,6-Dichloro-quinazolin-4-yl)-(4-methoxy-phenyl)-methyl-amine]
Caspase activity Ratio T-47D (48 hr) [2]: 6.5

Structure (SMILES): CN(c1ccc(Cl)cc1)c1nc(N(C)c2ccc(Cl)cc2)c2ccccc2n1 [Example 19, N^2,N^4-Bis(4-chloro-phenyl)-N^2,N^4-dimethyl-quinazoline-2,4-diamine]
Caspase activity Ratio T-47D (24 hr) [2]: 1.0 | Caspase activity Ratio T-47D (48 hr) [2]: 1.0

Structure (SMILES): Cc1nc(Nc2ccc(OC(F)F)cc2)c2ccccc2n1 [Example 78, (4-Difluoromethoxy-phenyl)-(2-methyl-quinazolin-4-yl)-amine]
Caspase activity Ratio T-47D (24 hr) [2]: 0.6

Structure (SMILES): CSc1nc(N(C)NC(=O)c2cccc(C)c2)c2ccccc2n1 [N′,3-dimethyl-N′-(2-(methylthio)quinazolin-4-yl)benzohydrazide]
Ratio T-47D (48 hr) [2]: 12.7

Structure (SMILES): COc1ccc(N(C)c2nc(CF)nc3ccccc23)cc1 [Example 55, (2-Fluoromethyl-quinazolin-4-yl)-(4-methoxy-phenyl)-methyl-amine]
Caspase activity Ratio T-47D (48 hr) [2]: 9.0

Structure (SMILES): Clc1nc(Nc2ccncc2)c2ccccc2n1 [Example 27, (2-Chloro-quinazolin-4-yl)-pyridin-4-yl-amine]
Caspase activity Ratio T-47D (48 hr) [2]: 1.0

Structure (SMILES): COc1ccc(N(c2nc(C)nc3ccccc23)C(F)F)cc1 [Example 139, Difluoromethyl-(4-methoxy-phenyl)-(2-methyl-quinazolin-4-yl)-amine]
Caspase activity Ratio T-47D (24 hr) [2]: 5.6

Structure (SMILES): COc1ccc(N(C)c2nc(NCCCN(C)C)nc3ccccc23)cc1 [Example 47, N^2-(3-Dimethylamino-propyl)-N^4-(4-methoxy-phenyl)-N^4-methyl-quinazoline-2,4-diamine]
Caspase activity Ratio T-47D (48 hr) [2]: 11.5

Structure (SMILES): COc1ccc(N(C)c2nc(N(C)c3ccc(OC)cc3)c3c(Cl)cccc3n2)cc1 [Example 63, 5-Chloro-N^2,N^4-bis-(4-methoxy-phenyl)-N^2,N^4-dimethyl-quinazoline-2,4-diamine]
Caspase activity Ratio T-47D (48 hr) [2]: 10.9

Structure (SMILES): COc1ccc(Nc2nc(Cl)nc3ccccc23)cn1 [Example 28, (2-Chloro-quinazolin-4-yl)-(6-methoxy-pyridin-3-yl)-amine]
Caspase activity Ratio T-47D (24 hr) [2]: 1.0 | Caspase activity Ratio T-47D (48 hr) [2]: 1.0

Structure (SMILES): COc1ccc2c(ccn2-c2nc(Cl)nc3ccccc23)c1 [Example 9, 2-Chloro-4-(5-methoxyindol-1-yl)quinazoline]
Caspase activity Ratio T-47D (48 hr) [2]: 1.8

Structure (SMILES): CCOc1ccc(N(C)c2nc(Cl)nc3ccccc23)cc1 [Example 97, (2-Chloro-quinazolin-4-yl)-(4-ethoxy-phenyl)-methylamine]
Caspase activity Ratio T-47D (48 hr) [2]: 9.0

Structure (SMILES): Cc1nc(N(C)c2ccc(O)cc2)c2ccccc2n1 [Example 93, (4-Hydroxy-phenyl)-(2-methyl-quinazolin-4-yl)-methyl-amine]
Caspase activity Ratio T-47D (24 hr) [2]: 11.3

Structure (SMILES): Cc1nc(N(C)c2ccc(N=[N+]=[N-])cc2)c2ccccc2n1 [Example 102, (4-Azido-phenyl)-(2-methyl-quinazolin-4-yl)-methyl-amine]
Caspase activity Ratio T-47D (24 hr) [2]: 8.8 | Caspase activity Ratio T-47D (48 hr) [2]: 11.3

Structure (SMILES): CCOc1ccc(Nc2nc(Cl)nc3ccccc23)cc1 [Example 94, (2-Chloro-quinazolin-4-yl)-(4-ethoxy-phenyl)-amine]
Caspase activity Ratio T-47D (48 hr) [2]: 1.0
